Source: patent US11547697B2, “Heterocyclic compounds and uses thereof” (MILLENNIUM PHARMACEUTICALS, INC., priority 2009, dated 2023)
Where two headings read alike, the source gives them in different places.

Legend:
Assay type in all cases: biochemical
[1] = molecular target: p110δ/p85α (Homo sapiens (Human), UniProt O00329); assay: PI 3-Kinase (human) HTRF assay, p110δ/p85α
[2] = molecular target: p110γ (Homo sapiens (Human), UniProt P48736); assay: PI 3-Kinase (human) HTRF assay, p110γ
[3] = molecular target: p110α/p85α (Homo sapiens (Human), UniProt P42336); assay: PI 3-Kinase (human) HTRF assay, p110α/p85α
[4] = molecular target: p110β/p85α (Homo sapiens (Human), UniProt P42338); assay: PI 3-Kinase (human) HTRF assay, p110β/p85α
[5] = in vitro, read-out: PI3K δ IC50
[6] = in vitro, read-out: PI3K γ IC50
[7] = in vitro, read-out: PI3K α IC50
[8] = in vitro, read-out: PI3K β IC50

Sequence of p110δ/p85α (O00329 whole entry): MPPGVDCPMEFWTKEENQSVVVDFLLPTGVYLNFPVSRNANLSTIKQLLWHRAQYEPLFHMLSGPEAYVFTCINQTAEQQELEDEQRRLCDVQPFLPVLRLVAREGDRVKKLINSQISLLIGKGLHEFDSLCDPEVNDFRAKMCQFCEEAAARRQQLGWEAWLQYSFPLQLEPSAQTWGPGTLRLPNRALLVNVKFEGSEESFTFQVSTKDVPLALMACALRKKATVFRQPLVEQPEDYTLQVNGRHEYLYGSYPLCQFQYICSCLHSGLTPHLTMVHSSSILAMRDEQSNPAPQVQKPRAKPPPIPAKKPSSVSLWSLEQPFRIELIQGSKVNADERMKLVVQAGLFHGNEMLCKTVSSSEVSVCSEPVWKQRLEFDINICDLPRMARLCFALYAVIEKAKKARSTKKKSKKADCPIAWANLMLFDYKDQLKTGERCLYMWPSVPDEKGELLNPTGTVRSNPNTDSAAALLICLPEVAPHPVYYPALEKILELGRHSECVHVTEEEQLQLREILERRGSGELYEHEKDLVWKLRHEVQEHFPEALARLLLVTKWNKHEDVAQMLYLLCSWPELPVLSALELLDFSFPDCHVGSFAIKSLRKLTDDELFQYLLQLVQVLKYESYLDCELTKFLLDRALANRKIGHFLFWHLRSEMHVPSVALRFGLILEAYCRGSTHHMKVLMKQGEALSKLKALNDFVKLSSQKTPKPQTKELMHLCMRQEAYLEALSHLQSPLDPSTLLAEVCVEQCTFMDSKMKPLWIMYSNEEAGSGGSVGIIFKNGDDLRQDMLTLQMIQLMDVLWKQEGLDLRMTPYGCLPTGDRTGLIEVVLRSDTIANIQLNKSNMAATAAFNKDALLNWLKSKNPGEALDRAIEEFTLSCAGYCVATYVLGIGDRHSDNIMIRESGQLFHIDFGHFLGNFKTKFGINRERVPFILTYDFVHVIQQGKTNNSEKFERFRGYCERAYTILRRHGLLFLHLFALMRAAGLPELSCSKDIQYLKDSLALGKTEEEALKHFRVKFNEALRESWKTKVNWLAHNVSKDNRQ
Sequence of p110δ/p85α (P27986 whole entry partner): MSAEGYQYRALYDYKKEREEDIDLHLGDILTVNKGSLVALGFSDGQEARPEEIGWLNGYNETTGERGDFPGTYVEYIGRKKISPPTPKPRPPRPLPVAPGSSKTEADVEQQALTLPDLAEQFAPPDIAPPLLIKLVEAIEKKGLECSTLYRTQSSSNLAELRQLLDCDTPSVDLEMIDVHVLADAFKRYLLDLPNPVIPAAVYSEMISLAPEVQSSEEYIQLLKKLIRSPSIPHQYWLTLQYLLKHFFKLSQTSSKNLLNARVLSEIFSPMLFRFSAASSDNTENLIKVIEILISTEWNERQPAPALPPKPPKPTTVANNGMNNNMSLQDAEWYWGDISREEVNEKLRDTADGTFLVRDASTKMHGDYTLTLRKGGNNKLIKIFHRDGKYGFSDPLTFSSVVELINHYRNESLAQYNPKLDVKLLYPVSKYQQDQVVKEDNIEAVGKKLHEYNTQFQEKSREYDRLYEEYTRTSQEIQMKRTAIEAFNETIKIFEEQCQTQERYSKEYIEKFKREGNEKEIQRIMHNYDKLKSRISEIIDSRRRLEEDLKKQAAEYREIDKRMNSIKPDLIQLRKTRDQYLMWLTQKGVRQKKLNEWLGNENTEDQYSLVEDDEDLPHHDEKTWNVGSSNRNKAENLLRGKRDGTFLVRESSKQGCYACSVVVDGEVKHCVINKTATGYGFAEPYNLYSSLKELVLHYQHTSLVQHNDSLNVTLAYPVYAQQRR
Sequence of p110β/p85α (P42338 whole entry): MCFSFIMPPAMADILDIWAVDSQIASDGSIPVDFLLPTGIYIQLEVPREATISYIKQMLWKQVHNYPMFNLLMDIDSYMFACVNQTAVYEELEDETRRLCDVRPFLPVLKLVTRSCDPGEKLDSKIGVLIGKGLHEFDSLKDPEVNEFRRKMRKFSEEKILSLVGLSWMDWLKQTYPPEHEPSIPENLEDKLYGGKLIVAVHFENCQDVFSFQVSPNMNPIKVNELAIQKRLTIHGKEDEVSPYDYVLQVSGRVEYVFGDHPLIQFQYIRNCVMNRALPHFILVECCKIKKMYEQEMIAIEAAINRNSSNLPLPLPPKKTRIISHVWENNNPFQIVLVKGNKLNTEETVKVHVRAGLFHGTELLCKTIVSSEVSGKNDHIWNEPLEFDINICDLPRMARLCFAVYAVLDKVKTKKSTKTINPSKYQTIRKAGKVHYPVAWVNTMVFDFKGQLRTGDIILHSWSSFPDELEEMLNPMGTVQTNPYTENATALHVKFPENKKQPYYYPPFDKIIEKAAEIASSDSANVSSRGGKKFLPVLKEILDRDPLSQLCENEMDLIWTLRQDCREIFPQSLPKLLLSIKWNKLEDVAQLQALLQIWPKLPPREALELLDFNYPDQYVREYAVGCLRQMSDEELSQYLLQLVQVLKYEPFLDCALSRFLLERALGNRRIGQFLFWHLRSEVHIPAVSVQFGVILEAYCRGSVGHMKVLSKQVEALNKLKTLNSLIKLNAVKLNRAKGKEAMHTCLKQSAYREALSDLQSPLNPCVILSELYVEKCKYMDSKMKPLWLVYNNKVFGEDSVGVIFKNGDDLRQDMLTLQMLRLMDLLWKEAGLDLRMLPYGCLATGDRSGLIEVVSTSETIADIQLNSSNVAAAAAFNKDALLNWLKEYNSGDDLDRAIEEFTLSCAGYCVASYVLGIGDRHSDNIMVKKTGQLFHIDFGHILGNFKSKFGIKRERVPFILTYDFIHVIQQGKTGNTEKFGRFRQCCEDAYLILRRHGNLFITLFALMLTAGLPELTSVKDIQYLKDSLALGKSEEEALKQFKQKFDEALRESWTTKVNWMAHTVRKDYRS
Sequence of p110β/p85α (P27986 whole entry partner): as the sequence (P27986 whole entry partner) above
Sequence of p110α/p85α (P42336 whole entry): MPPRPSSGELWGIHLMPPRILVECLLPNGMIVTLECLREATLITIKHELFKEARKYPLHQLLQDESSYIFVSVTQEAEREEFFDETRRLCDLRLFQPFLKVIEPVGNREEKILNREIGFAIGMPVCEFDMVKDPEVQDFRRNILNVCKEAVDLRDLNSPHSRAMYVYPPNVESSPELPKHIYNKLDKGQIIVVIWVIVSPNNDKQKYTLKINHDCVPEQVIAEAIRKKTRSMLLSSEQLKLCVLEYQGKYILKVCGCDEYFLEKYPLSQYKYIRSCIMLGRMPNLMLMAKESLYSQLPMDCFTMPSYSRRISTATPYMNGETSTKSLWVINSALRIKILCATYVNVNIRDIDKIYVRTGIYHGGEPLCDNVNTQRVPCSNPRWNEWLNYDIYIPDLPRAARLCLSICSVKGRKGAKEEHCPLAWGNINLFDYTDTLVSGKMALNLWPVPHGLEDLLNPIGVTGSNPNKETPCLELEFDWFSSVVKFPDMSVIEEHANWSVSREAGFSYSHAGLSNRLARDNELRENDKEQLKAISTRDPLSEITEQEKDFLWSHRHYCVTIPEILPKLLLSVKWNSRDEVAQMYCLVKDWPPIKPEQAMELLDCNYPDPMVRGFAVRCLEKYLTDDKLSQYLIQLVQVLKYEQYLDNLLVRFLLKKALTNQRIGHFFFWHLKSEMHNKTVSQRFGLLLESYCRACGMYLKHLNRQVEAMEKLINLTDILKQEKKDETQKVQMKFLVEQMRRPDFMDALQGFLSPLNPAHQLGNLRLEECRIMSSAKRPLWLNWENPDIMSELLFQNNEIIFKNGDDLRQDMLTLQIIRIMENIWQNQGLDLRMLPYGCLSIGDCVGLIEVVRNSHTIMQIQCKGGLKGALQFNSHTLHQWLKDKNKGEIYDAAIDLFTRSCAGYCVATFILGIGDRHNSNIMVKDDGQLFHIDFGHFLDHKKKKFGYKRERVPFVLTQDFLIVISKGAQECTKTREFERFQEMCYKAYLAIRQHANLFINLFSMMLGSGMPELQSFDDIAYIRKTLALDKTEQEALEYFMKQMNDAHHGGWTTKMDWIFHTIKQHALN
Sequence of p110α/p85α (P27986 whole entry partner): as the sequence (P27986 whole entry partner) above
Sequence of p110γ (P48736 whole entry): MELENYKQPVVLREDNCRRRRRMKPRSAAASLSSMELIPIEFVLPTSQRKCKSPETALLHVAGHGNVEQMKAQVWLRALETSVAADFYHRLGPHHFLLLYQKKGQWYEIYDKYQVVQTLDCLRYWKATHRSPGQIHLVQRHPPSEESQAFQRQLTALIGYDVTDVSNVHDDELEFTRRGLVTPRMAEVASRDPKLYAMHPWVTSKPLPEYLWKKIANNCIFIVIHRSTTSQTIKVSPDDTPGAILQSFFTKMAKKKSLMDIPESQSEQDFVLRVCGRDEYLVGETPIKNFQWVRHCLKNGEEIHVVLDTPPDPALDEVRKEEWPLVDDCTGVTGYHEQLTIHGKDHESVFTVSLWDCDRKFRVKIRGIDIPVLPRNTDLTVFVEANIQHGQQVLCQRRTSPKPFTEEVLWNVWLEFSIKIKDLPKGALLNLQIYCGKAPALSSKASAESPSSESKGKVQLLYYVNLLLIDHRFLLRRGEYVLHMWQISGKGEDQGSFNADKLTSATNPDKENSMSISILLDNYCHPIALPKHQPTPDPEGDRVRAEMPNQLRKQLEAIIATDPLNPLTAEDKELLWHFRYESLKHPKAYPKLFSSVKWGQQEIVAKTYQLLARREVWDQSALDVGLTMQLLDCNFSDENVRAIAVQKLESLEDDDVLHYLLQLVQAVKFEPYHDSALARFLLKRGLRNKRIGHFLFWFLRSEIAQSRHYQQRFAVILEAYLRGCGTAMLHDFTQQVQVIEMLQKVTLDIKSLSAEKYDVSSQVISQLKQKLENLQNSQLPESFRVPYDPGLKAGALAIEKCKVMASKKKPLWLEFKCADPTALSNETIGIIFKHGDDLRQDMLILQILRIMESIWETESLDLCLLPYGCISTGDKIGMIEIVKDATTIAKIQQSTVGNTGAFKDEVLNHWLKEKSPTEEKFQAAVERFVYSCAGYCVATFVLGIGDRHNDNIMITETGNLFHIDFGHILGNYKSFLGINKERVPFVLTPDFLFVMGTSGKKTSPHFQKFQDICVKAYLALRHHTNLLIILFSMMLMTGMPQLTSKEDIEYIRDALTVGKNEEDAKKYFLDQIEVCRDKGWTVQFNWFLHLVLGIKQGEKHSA

IC50 [1, 5] [µM] | IC50 [2, 6] [µM] | IC50 [3, 7] [µM] | IC50 [4, 8] [µM] | IC50 ([1]; read-out: PI3K δ IC50) [µM] | IC50 ([2]; read-out: PI3K γ IC50) [µM] | IC50 ([3]; read-out: PI3K α IC50) [µM] | IC50 ([4]; read-out: PI3K β IC50) [µM] | Structure (SMILES) | further results
< 10 | < 0.1 | < 0.1 | < 1 |  |  |  |  | Nc1nc2cc(-c3ccc4ncc(N5CC(N6CCNC(=O)C6)C5)nc4c3)ccc2o1 [compound 325] | 
< 10 | < 10 | < 0.1 | < 10 |  |  |  |  | Nc1nc2cc(-c3ccc4ncc(N5CC(N6CCOCC6)C5)nc4c3)c(F)cc2o1 [compound 373] | 
< 10 | < 10 | < 1 | < 10 |  |  |  |  | Nc1nc2cc(-c3ccc4ncc(N5CC(N6CCCC6)C5)nc4c3)ccc2o1 [compound 314] | 
< 10 | < 0.1 | < 0.1 | < 1 |  |  |  |  | Nc1nc2cc(-c3ccc4ncc(C(=O)N5CCOCC5)n4c3)cc(Cl)c2o1 [compound 359] | 
< 10 | < 1 | < 0.1 | < 10 |  |  |  |  | CN1CCN(C2CN(c3cnc4ccc(-c5ccc6oc(N)nc6c5)cc4n3)C2)CC1=O [compound 323] | 
< 10 | < 0.1 | < 0.1 | < 1 |  |  |  |  | Nc1nc2cc(-c3ccc4ncc(C(=O)N5CCOCC5)n4c3)cc(F)c2o1 [compound 360] | 
< 10 | < 1 | < 1 | < 1 |  |  |  |  | Nc1nc2cc(-c3ccc4ncc(N5CC(N)C5)nc4c3)ccc2o1 [compound 367] | 
< 10 | < 1 | < 0.1 | < 1 |  |  |  |  | Nc1nc2cc(-c3ccc4ncc(N5CC(N6CC[C@H](O)C6)C5)nc4c3)ccc2o1 [compound 322] | 
< 10 | < 1 | < 1 | < 0.1 |  |  |  |  | C[C@H]1CN(c2cnc3ccc(-c4ccc5oc(N)nc5c4)cc3n2)CCN1C [compound 332] | 
< 1 | < 1 | < 0.1 | < 1 |  |  |  |  | Cc1cn(C2CN(c3cnc4ccc(-c5ccc6oc(N)nc6c5)cc4n3)C2)cn1 [compound 339] | 
< 10 | < 10 | < 1 | < 10 |  |  |  |  | Nc1nc2cc(-c3ccc4ncc(C(=O)N5CCOCC5)n4c3)c(F)cc2o1 [compound 372] | 
< 10 | < 10 | < 0.1 | < 1 |  |  |  |  | CN1CCN([C@H]2CCN(c3cnc4ccc(-c5ccc6oc(N)nc6c5)cc4n3)C2)CC1 [compound 381] | 
< 1 | < 1 | < 1 | < 10 |  |  |  |  | Nc1nc2cc(-c3ccc4ncc(N5CC[C@H](N6CCOCC6)C5)nc4c3)ccc2o1 [compound 375] | 

More lines, now with the values behind:

Structure (SMILES) | IC50 [1, 5] [µM] | IC50 [2, 6] [µM] | IC50 [3, 7] [µM] | IC50 [4, 8] [µM] | IC50 ([1]; read-out: PI3K δ IC50) [µM] | IC50 ([2]; read-out: PI3K γ IC50) [µM] | IC50 ([3]; read-out: PI3K α IC50) [µM] | IC50 ([4]; read-out: PI3K β IC50) [µM] | further results
C[C@@H]1CCCN1C(=O)c1cnc2ccc(-c3ccc4oc(N)nc4c3)cn12 [compound 481] |  |  |  |  |  |  |  |  | IC50 ([1]; read-out: PI3K δ In Vitro IC50): < 10 µM; IC50 ([2]; read-out: PI3K γ In Vitro IC50): < 1 µM; IC50 ([3]; read-out: PI3K α In Vitro IC50): < 0.1 µM; IC50 ([4]; read-out: PI3K β In Vitro IC50): < 10 µM
Nc1nc2cc(-c3ccc4ncnc(NC5CCN(C(=O)C6CC6)CC5)c4c3)ccc2o1 [compound 89] |  |  |  |  | < 0.1 | < 0.1 | < 0.1 | < 10 | 
CS(=O)(=O)N1CCC(Nc2cnc3ccc(-c4ccc5oc(N)nc5c4)cc3n2)CC1 [compound 95] |  |  |  |  | < 0.1 | < 0.1 | < 0.1 | < 10 | 
Nc1nc2cc(-c3ccc4ncc(-c5cccnc5)n4n3)ccc2o1 [compound 58] |  |  |  |  | < 0.1 | < 0.1 | < 0.1 | < 0.1 | 
CN1CCC(N(C)c2ncnc3ccc(-c4ccc5oc(N)nc5c4)cc23)CC1 [compound 155] |  |  |  |  | < 1 | < 0.1 | < 0.1 | < 0.1 | 
COC(=O)N1CCN(c2cnc3ccc(-c4ccc5oc(N)nc5c4)cc3n2)CC1 [compound 193] |  |  |  |  | < 10 | < 0.1 | < 0.1 | < 1 | 
Nc1nc2ccc(-c3ccc4sc(N)nc4c3)cc2o1 [compound 249] | < 1 | < 0.1 | < 0.1 | < 0.1 |  |  |  |  | 
Nc1nc2cc(-c3ccc4ncc(C(=O)N5CCC(N6CCOCC6)CC5)n4c3)ccc2o1 [compound 163] |  |  |  |  | < 10 | < 10 | < 1 | < 10 | 
Nc1nc2cc(-c3ccn4ncc(C(=O)N5CCC(N6CCOCC6)CC5)c4c3)ccc2o1 [compound 398] |  |  |  |  |  |  |  |  | IC50 ([1]; read-out: PI3K δ In Vitro IC50): < 10 µM; IC50 ([2]; read-out: PI3K γ In Vitro IC50): < 10 µM; IC50 ([3]; read-out: PI3K α In Vitro IC50): < 1 µM; IC50 ([4]; read-out: PI3K β In Vitro IC50): < 10 µM
CN1CCC(n2cnc3ccc(-c4cnc(Cl)c(NS(=O)(=O)c5ccccc5)c4)cc3c2=O)CC1 [compound 527] |  |  |  |  |  |  |  |  | IC50 ([1]; read-out: PI3K δ In Vitro IC50): < 0.1 µM; IC50 ([2]; read-out: PI3K γ In Vitro IC50): < 1 µM; IC50 ([3]; read-out: PI3K α In Vitro IC50): < 0.1 µM; IC50 ([4]; read-out: PI3K β In Vitro IC50): < 0.1 µM
Nc1nc2cc(-c3ccc4ncc(NCCCN5CCOCC5)nc4c3)ccc2o1 [compound 222] | < 0.1 | < 1 | < 0.1 | < 1 |  |  |  |  | 
O=C(c1cnc2ccc(-c3ccc(Cl)c(NS(=O)(=O)c4ccc(F)cc4F)c3)cn12)N1CCOCC1 [compound 461] |  |  |  |  |  |  |  |  | IC50 ([1]; read-out: PI3K δ In Vitro IC50): < 10 µM; IC50 ([2]; read-out: PI3K γ In Vitro IC50): < 10 µM; IC50 ([3]; read-out: PI3K α In Vitro IC50): < 1 µM; IC50 ([4]; read-out: PI3K β In Vitro IC50): < 10 µM
CC(=O)N1CCN(c2cnc3ccc(-c4ccc5oc(N)nc5c4)cc3n2)CC1 [compound 85] |  |  |  |  | < 0.1 | < 0.1 | < 0.1 | < 0.1 | 
Nc1nc2cc(-c3ccc4ncc(N5CCNC(C(F)F)C5)nc4c3)ccc2o1 (centres unmarked) [compound 413] |  |  |  |  |  |  |  |  | IC50 ([1]; read-out: PI3K δ In Vitro IC50): < 10 µM; IC50 ([2]; read-out: PI3K γ In Vitro IC50): < 1 µM; IC50 ([3]; read-out: PI3K α In Vitro IC50): < 0.1 µM; IC50 ([4]; read-out: PI3K β In Vitro IC50): < 1 µM
CCN(CC)CCCNc1cnc2ccc(-c3ccc4oc(N)nc4c3)cc2n1 [compound 220] | < 0.1 | < 1 | < 0.1 | < 1 |  |  |  |  | 
COc1ncc(-c2ccc3ncc(C(=O)N4CCOCC4)n3c2)cc1NS(=O)(=O)c1cccc(F)c1 [compound 423] |  |  |  |  |  |  |  |  | IC50 ([1]; read-out: PI3K δ In Vitro IC50): < 0.1 µM; IC50 ([2]; read-out: PI3K γ In Vitro IC50): < 0.1 µM; IC50 ([3]; read-out: PI3K α In Vitro IC50): < 0.1 µM; IC50 ([4]; read-out: PI3K β In Vitro IC50): < 1 µM
Nc1nc2cc(-c3cn4c(-c5cn[nH]c5)cnc4cn3)ccc2o1 [compound 69] |  |  |  |  | < 10 | < 1 | < 1 | < 10 | 
CC(C)(C)N1CCN(C(=O)c2cnc3ccc(-c4ccc5oc(N)nc5c4)cn23)CC1 [compound 191] |  |  |  |  | < 10 | < 10 | < 0.1 | < 10 | 
NCC(=O)N1CCN(c2cnc3ccc(-c4ccc5oc(N)nc5c4)cc3n2)CC1 [compound 192] |  |  |  |  | < 1 | < 1 | < 0.1 | < 1 | 
Nc1nc2cc(-c3ccc4ncc(N5CC(C(=O)NC6CC6)C5)nc4c3)ccc2o1 [compound 215] | < 10 | < 1 | < 0.1 | < 1 |  |  |  |  | 
CC(Oc1nc(-c2ccc3ncc(C(=O)N4CCOCC4)n3c2)cnc1N)C(F)(F)F (centres unmarked) [compound 411] |  |  |  |  |  |  |  |  | IC50 ([1]; read-out: PI3K δ In Vitro IC50): < 10 µM; IC50 ([2]; read-out: PI3K γ In Vitro IC50): < 1 µM; IC50 ([3]; read-out: PI3K α In Vitro IC50): < 0.1 µM; IC50 ([4]; read-out: PI3K β In Vitro IC50): < 10 µM
CC1CN(c2cnc3ccc(-c4ccc5oc(N)nc5c4)cc3n2)CCN1 (centres unmarked) [compound 149] |  |  |  |  | < 10 | < 1 | < 0.1 | < 0.1 | 
Nc1nsc2cc(-c3ccc4nccc(-c5ccncc5)c4c3)ccc12 [compound 13] |  |  |  |  | < 1 | < 1 | < 0.1 | < 1 | 
Nc1nc2cccc(-c3ccc4nccc(-c5ccncc5)c4c3)c2s1 [compound 17] |  |  |  |  | < 1 | < 0.1 | < 0.1 | < 1 | 
Nc1nc2cc(-c3ccc4ncnc(NC5CCOCC5)c4c3)ccc2o1 [compound 24] |  |  |  |  | < 0.1 | < 0.1 | < 0.1 | < 1 | 
